Values of other authors as cited in US12296127B2, “Intravesical drug delivery devices” (Massachusetts Institute of Technology, priority 2007, dated 2025).

How the values were obtained:
[1] = delivered orally or transdermally
[2] = oral delivery (ELMIRON); high first pass effect

Molecule	patients taking the drug who experience side effects [1]	patients who stop treatment due to the severity of the side effects [1] [%]	bioavailability [2] [%]
CCN(CC)CC#CCOC(=O)C(O)(c1ccccc1)C1CCCCC1 (stereo not drawn) [oxybutynin]	approximately 61%	7 to 11	
Pentosan polysulfate sodium [PPS]			3
